Measured values: patent publication US20240238268A1, “TREATMENTS AND METHODS FOR TREATING ALZHEIMER'S DISEASE” (Board of Supervisors of Louisiana State University and …, priority 2021, published 2024)

Assays:
[1] = system: iNOS; assay: iNOS protein level in brain, capillary-phoresis; format: in vivo, mouse; details: treated 3xTg-AD mice; control = 100%
Excerpt: Capillary-phoresis immunoassay via ProteinSimple®: Quantification of all protein targets was achieved using Simple Western analysis in a Jess™ apparatus per the manufacturer's protocol (ProteinSimple, Bio-techne, Minneapolis, MN). Protein was extracted from dissected tissue in an extraction buffer consisting of T-PER® Tissue Protein Extraction Reagent (Cat. No. 78510, Thermo Fischer Scientific, Waltham, MA) and Halt™ Protease Inhibitor Cocktail (Cat. No. 87785, Thermo Fischer Scientific, Waltham, MA). Following homogenization and centrifugation (10,000×g, 5 min, 4° C.), protein concentration was determined in tissue protein supernatant samples using DC Protein Assay (Cat. No. 5000112, Bio-Rad Laboratories, Hercules, California) according to manufacturer instructions. […] Antibody diluent (ProteinSimple, Bio-techne, Minneapolis, MN) was used for all antibody dilutions as follows: PRMT4 (1:50, RRID: AB_2068436), PRMT6 (1:100, Cell Signaling Technology cat. 14641), eNOS (1:200, RRID: AB_10850618), nNOS (1:100, RRID: AB_2152488), iNOS (1:100, RRID: AB_10000625), DDAH2 (1:50, RRID: AB_2640442) Antibodies were detected using HRP-conjugated secondary anti-rabbit, and -mouse. Relative protein levels were calculated by measuring the area under the peak of a chemiluminescent chromatogram and normalized to total capillary chemiluminescence for a given sample. […]

[2] = system: aged 3xTg-AD female mice; assay: T-maze spontaneous alternation; format: in vivo, mouse; details: 30 mg/kg, 7 days, IP
Description: FIGS. 20A and 20B are two graphs showing PRMT4 inhibitor (TP-064) or AAV knockdown of PRMT4 improved functional learning/memory in aged 3xTg-AD female mice. […] C57 but increased with administration of TP-064 (30 mg/kg, 7 days, IP). In FIG. 20B, in Novel Object Recognition, aged 3xTg-AD female mice had fewer number of entries in the novel zone v. C57. Treatment with TP-064 or brain-specific AAV knockdown of PRMT4 increased the number of entries. T-maze and novel object recognition test were utilized to analyze working/short-term and reference/long-term memory, respectively. * p<0.05 v. C57 via one-way ANOVA with Tukey's post-hoc analyses.

[3] = target: PRMT4 (Homo sapiens, UniProt Q86X55); details: cited from earlier work
PRMT4, sequence (Q86X55 whole entry, species assumed): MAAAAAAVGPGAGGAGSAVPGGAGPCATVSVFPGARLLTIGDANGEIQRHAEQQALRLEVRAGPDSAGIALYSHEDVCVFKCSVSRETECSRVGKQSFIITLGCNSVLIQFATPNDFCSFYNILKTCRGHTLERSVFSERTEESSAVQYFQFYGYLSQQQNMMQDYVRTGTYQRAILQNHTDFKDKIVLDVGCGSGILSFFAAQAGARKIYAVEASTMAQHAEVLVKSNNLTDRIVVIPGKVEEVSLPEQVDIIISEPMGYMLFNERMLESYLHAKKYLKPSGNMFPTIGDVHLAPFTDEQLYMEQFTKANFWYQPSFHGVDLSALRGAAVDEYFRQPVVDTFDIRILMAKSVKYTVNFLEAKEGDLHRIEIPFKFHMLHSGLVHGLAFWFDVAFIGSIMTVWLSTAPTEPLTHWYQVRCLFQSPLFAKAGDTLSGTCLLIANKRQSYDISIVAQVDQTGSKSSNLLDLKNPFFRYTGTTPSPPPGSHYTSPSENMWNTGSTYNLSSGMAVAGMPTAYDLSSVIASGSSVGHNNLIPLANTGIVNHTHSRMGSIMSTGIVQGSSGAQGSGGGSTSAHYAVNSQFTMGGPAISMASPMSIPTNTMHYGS

[4] = system: aged 3xTg-AD female mice; assay: BBB permeability: Evan's blue brain penetration; format: in vivo, mouse; details: formamide extraction of whole brain
Excerpt: FIG. 15 is a graph showing blood brain barrier permeability was impaired in aged 3xTg-AD female mice but reversed with TP-064. […] Formamide extraction of Evan's blue infused-whole-brain was quantified. * p<0.05 compared to C57, #p<0.05 compared to 3xTg-AD, evaluated by one-way ANOVA with Tukey's post-hoc analysis.

[5] = system: aged 3xTg-AD female mice; assay: BBB leakage: 40 kDa FITC-dextran in perivascular space; format: in vivo, mouse; details: 30 min after FITC-dextran
Excerpt: FIGS. 14A-14C show BBB leakage is reduced with specific PRMT4 inhibitor (TP-064) or AAV knockdown of PRMT4 in aged 3xTg-AD female mice. Aged female 3xTg-AD mice had higher levels of 40 kDa FITC-dextran in the perivascular space v. C57 controls. This was reduced with administration of PRMT inhibitor (TP-064) or AAV knockdown of PRMT4. […] FIG. 14B is a schematic representation of one of the disclosed experimental paradigms. […] C57, #p<0.05 v. 3xTg-AD female, evaluated by one-way ANOVA with Tukey's post-hoc analysis.

[6] = system: E-Cadherin; assay: E-Cadherin level, protein chip assay; format: in vivo, mouse; details: aged 3xTg-AD female mice; cortex and hippocampus; 30 mg/kg, 7 days, IP
Description: FIGS. 19A-19F are six graphs showing PRMT4 inhibitor (TP-064) reduced ICAM-1, VCAM-1 and enhanced E-Cadherin protein levels in aged female 3xTg-AD mice. In FIGS. 19A-19D, aged 3xTg-AD female mice v. […] Adhesion molecules were assessed via protein chip assay in the cortex and hippocampus. * p<0.05 evaluated by one-way ANOVA with Tukey's post-hoc analyses.

[7] = system: 3-nitrotyrosine; assay: 3-Nitrotyrosine ELISA of brain lysate; format: in vivo, mouse; details: combined cortex and hippocampus lysate
Description: OxiSelect™ 3-Nitrotyrosine ELISA: Protein was extracted from dissected tissue in an extraction buffer consisting of T-PER® Tissue Protein Extraction Reagent (Cat. No. 78510, Thermo Fischer Scientific, Waltham, MA) and Halt™ Protease Inhibitor Cocktail (Cat. No. 87785, Thermo Fischer Scientific, Waltham, MA). Following homogenization and centrifugation (10,000×g, 5 min, 4° C.), protein concentration was determined in the supernatant using DC Protein Assay (Cat. No. 5000112, Bio-Rad Laboratories, Hercules, California) according to manufacturer instructions. Levels of 3-Nitrotyrosine were determined using OxiSelect™ 3-Nitrotyrosine ELISA (Cat. No. STA-305, Cell Biolabs Inc., San Diego, CA). Briefly, 50 μL of protein lysate was added to a pre-coated 96-well plate and incubated at room temperature (20° C.) for 10 min on an orbital shaker. 50 μL of anti-nitrotyrosine antibody (1:1000, Cell Biolabs Inc., San Diego, CA) was added to each well and plate was incubated for 1 hr at 20° C. Wells were washed 3 times using assay wash buffer, and 100 μL of secondary antibody-enzyme conjugate (1:1000, Cell Biolabs Inc., San Diego, CA) was added to each well. Plate was then incubated for 1 hr at 20° C. on an orbital shaker. […] The standard curve was provided by the manufacturer, and all sample concentrations were determined from the standard curve values. Changes in absorbance were measured at 450 nm. […]

With CNCCN1CCC(c2cc(CN(C)C(=O)c3cccc(Oc4ccccc4)c3)ccn2)CC1 [TP-064, N-Methyl-N-((2-(1-(2-(methylamino)ethyl)piperidin-4-yl)pyridin-4-yl)methyl)-3-phenoxybenzamide] the “iNOS level in cortical lysates” value [1] was 197%±24.1, the “iNOS level in hippocampal lysates” value [1] was 157%±17.5 and the “T-maze spontaneous alternation ratio” value [2] was “increased”. The “selectivity over other histone methyltransferases and non-epigenetic targets” value [3] was over 100 fold, the “brain penetration of Evan's blue (BBB leakage)” value [4] was “lower brain penetration of Evan's blue” and the “40 kDa FITC-dextran in the perivascular space (BBB leakage)” value [5] was “reduced”. The E-Cadherin level [6] was “elevated”, the 3-nitrotyrosine level ([7]; 3xTg-AD mice) was 110 ± 27.2 µM and the 3-nitrotyrosine level ([7]; C57BL/6J mice) was 86.9 ± 7.71 µM.
